A word on the IC50: it is the concentration at which inhibition is half-maximal. One may read the Papp as the rate of passage across a membrane or cell layer, normalised by area and donor concentration. The AUC is concentration integrated over time. A lower AUC goes with low exposure. Broadly, the half-life is the time needed for the level to fall by half in the phase considered. The low end stands for rapid decline, the high end for slow decline. A word on the bioavailability: it is the share of a dose that reaches the circulation, judged against a reference dose that is usually intravenous. A low value points to poor availability.

The target in one data set is Human KLKB1 (Homo sapiens (Human), UniProt P03952). The data set is described as follows: KLKB1 kallikrein activity inhibition assay (chromogenic substrate S-2302). It counts as biochemical. Summed up:
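Enzyme at a final 3 nM was assayed in 0.05 M Tris pH 7.4, 0.01 M NaCl and 0.2% PEG-8000 at room temperature, with compounds as ten-point threefold dilutions.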

The target of data set [1] is Recombinant human tissue kallikrein (KLK1) (Homo sapiens (Human), UniProt P06870). The data set is described as follows: KLK1 kallikrein activity inhibition assay (Pro-Phe-Arg-AMC substrate). It counts as biochemical. The method, then: The KLK1 kallikrein activity reported herein (e.g., Tables B and C) was obtained as follows. Recombinant human tissue kallikrein (KLK1) was obtained from R&D Systems. […] KLK1 enzyme is activated by incubating 0.5 mg/ml KLK1 combined with 0.1 μg/ml thermolysin in a buffer of 0.05 M Tres (pH 7.5), 0.15 M NaCl, and 0.01 M CaCl2 for one hour at 37° C. The thermolysin is then deactivated by the addition of equal parts 20 mM 1, 10 phenanthroline solution in water. The activated KLK1 solution is then added to CHES buffer (0.05 M CHES, 0.15 M NaCl, 0.01 M CaCl2, pH 10) for a final concentration of 5 nM along with the test article and incubated for 10 minutes. […] Substrate activation is read 10 minutes after substrate addition using a Synergy H1 multifunction plate reader (Biotek) programmed with a 360 nm excitation wavelength and a 480 nm emission wavelength. Inhibitor response was established by adding test compound as ten point, three-fold serial dilutions, as known in the art. The IC50 was calculated by plotting the percent (%) inhibition against compound concentration and fitting the data to a constrained four parameter sigmoidal curve, as known in the art.
Sequence of Recombinant human tissue kallikrein (KLK1) (P06870 25-262): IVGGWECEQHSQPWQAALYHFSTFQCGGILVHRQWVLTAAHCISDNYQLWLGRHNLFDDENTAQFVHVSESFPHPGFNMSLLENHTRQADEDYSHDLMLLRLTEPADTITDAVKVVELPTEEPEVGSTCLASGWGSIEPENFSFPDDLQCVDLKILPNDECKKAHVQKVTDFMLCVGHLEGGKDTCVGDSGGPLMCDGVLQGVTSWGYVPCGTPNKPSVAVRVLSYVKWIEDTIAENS

A short description of data set [2]: Trans-corneal permeability in vitro across excised rabbit corneas (Franz chamber). It counts as in vitro ADME. The conditions noted are these: excised rabbit cornea, compound in PBS, 37° C., four hours. The method, then:
In this example, trans-corneal permeability of compounds are measured in-vitro across excised rabbit corneas. Excised rabbit cornea are acquired from Pel-Freez and delivered in DMEM culture media on ice overnight. The test apparatus is a curved 9 mm Franz chamber (Permegear) suitable for rabbit eyes. Test compound is prepared in PBS buffer. The compound solution is added to the donor chamber of the Franz chamber and the entire apparatus placed in an incubator at 37° C. for four hours. During incubation and at every subsequent hour, a sample is removed from the receiver chamber and analyzed by HPLC (Shimadzu Prominence) using a C18 column (Phenomenex 00E-4605-E0) in reverse phase with acetonitrile in water. The apparent permeability coefficient Papp (cm/s) is calculated as
where dM/dt is the flux (nmol/s) across the cell layers or cornea, A is the exposed surface area (cm^2) of the insert membrane of rabbit cornea, and C0 is the initial drug concentration (μM) in the donor compartment.

Data set [3] can be described thus: Pharmacokinetics in mice (i.v. and p.o.). Type of data set: in vivo, male CD-1 mice. The note with it: male, CD-1, mouse, in vivo. The method, then: Each compound is administered intravenously (i.v.) as a single dose via tail vein or orally (p.o.) as a single dose via gastric gavage to male CD-1 mice of nominal weights between 20 g and 26 g. Nominal doses are 1 mg/kg and 5 mg/kg for i.v. and p.o., respectively. In some examples (dose type A), both p.o. and i.v. doses are prepared by dissolving the test compound in 5% dimethyl acetamide and diluted in tetraethylene glycol for a final concentration of 0.25 mg/mL. In other examples (dose type B), i.v. doses are prepared by dissolving test compounds in 20% dimethyl acetamide, 40% polyethylene glycol 300 and 40% phosphate buffered saline, and p.o. doses are prepared by dissolving test compounds in carboxymethyl cellulose suspension (1% by weight) in water and 2.5% dimethyl acetamide.
Animals are housed in standard holding cages with food and water available ad libitum except for animals used for p.o. dosing which are fasted overnight prior to dosing. Samples are taken in triplicate via cardiac puncture at times prior to dosing and at 0.083 (i.v. only), 0.25, 0.5, 1, 2, 4, 8, and 24 hours after administration. Plasma is obtained by centrifuge and stored frozen until analyzed by LC-MS/MS using a Shimadzu VP System HPLC coupled to a Applied Biosystems MDS SCIEX API 3000 triple quadrapole MS. Assay results are calibrated using reference samples prepared in a range between 1.5 and 5000 ng/mL.
Pharmacokinetic parameters are calculated from mean concentration values using a non-compartmental analysis as described in the following and as apparent to those of ordinary skill in the art. Half-lives (t1/2) and elimination rate constants (λ) are determined by log linear regression using equal weighting on the last three finite sample time points. Concentration at time zero (C0) for the i.v. data is established by the extrapolation of log linear regression using equal weighting on the first three sample time points. Area under the curve (AUC) values are calculated using linear trapezoidal integration. Systemic clearance (CL) is calculated as the ratio of dosage and AUC. […] Percent oral bioavailability (% F) is determined from the ratio of i.v. and p.o. AUC values weighted by dosage.

In the next data set the target is Human thrombin (Homo sapiens (Human), UniProt P00734). Put plainly: Thrombin protease activity inhibition assay (chromogenic substrate S-2238). It counts as biochemical. The note with it: 3 nM thrombin, 125 μM S-2238, 10 min pre-incubation, RT. Put shortly:
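Thrombin at 3 nM final in 0.05 M Tris pH 7.4, 0.015 M NaCl, 0.01% PEG-8000, at room temperature; compounds as ten-point three-fold dilutions.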

The test system of another data set is malignant breast tumors. The conditions noted are these: treated mice, cited from earlier work.

Each structure is given as a SMILES string.

Sequence of Human KLKB1 (P03952 391-638 limits assumed): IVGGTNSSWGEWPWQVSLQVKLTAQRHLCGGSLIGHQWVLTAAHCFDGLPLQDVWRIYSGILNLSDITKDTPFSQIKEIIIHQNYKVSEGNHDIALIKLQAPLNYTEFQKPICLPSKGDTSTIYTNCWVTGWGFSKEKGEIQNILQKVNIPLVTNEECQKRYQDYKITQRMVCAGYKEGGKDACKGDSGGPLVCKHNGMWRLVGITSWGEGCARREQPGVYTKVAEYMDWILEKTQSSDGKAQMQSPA
Sequence of Human KLKB1 (P03952 20-390 partner limits assumed): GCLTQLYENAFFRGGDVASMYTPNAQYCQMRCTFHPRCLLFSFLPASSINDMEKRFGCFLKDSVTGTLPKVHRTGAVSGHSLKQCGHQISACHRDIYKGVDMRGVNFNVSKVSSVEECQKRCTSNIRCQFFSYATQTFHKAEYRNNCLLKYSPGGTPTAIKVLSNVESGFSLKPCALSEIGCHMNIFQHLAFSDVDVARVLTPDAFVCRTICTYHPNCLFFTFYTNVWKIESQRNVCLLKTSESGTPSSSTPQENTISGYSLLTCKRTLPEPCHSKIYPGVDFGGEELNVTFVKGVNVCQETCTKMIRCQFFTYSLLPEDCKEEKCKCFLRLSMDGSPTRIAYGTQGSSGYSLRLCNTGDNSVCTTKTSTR

Take `O=C(c1ccoc1)n1nc(-c2ccc[nH]c2=O)cc1NCc1ccc(Cl)s1` [Cmpd 4, 3-(5-[(5-chlorothiophen-2-yl)methyl]amino-1-[(furan-3-yl)carbonyl]-1H-pyrazol-3-yl)-1,2-dihydropyridin-2-one]: at Human KLKB1 (Table B), the IC50 lay within 1 to 10 µM. In data set [1] (Table B), the IC50 is 10 to 100 µM. This compound also gave a Papp at 4 h in data set [2] of 2.5 ×10⁻⁶ cm/s. In data set [3] (iv, 1 mg/kg), this compound had an AUC of 100 ng·h/mL, a C0 of 300 ng/mL, a Vd of 10 L/kg and a clearance of 167 mL/min/kg. In data set [3] (iv, 1 mg/kg), this compound gave a half-life of 60 min. Besides, in data set [3] (po, 5 mg/kg), the AUC amounted to 300 ng·h/mL, the bioavailability was determined as 60% and the half-life is 360 min.
Regarding `COc1ccccc1C(=O)n1nc(-c2ccccn2)nc1NCc1ccc(Cl)s1` [Cmpd 22], the IC50 on Human KLKB1 (Table C) was under 0.1 µM; in data set [1] (Table C) it was 10 to 100 µM. In addition, the Papp at 4 h in data set [2] came to 5.7 ×10⁻⁶ cm/s.
On Human thrombin, `O=C(c1ccoc1)n1nc(-c2cccn(Cc3ccccn3)c2=O)cc1NCc1ccc(Cl)s1` [Cmpd 25, 3-(5-[(5-chlorothiophen-2-yl)methyl]amino-1-[(furan-3-yl)carbonyl]-1H-pyrazol-3-yl)-1-(pyridin-2-ylmethyl)-1,2-dihydropyridin-2-one] returned an IC50 of under 0.1 µM. The compound also returned an IC50 against Human KLKB1 (Table B) of 0.1 to 1 µM. Also, the IC50 in data set [1] (Table B) is 10 to 100 µM. In addition, in data set [3] (iv, 1 mg/kg), the AUC was determined as 40 ng·h/mL, the C0 was 100 ng/mL, the Vd is 6 L/kg and the clearance is 167 mL/min/kg. In addition, in data set [3] (iv, 1 mg/kg), the half-life is 18 min. Also, in data set [3] (po, 5 mg/kg), the AUC amounted to 10 ng·h/mL, the bioavailability worked out at 9% and the half-life was over 18 min.
At Human thrombin, `O=C(c1ccoc1)n1nc(-c2cccn(Cc3ccco3)c2=O)cc1NCc1ccc(Cl)s1` [Cmpd 26, 3-(5-[(5-chlorothiophen-2-yl)methyl]amino-1-[(furan-3-yl)carbonyl]-1H-pyrazol-3-yl)-1-(furan-2-ylmethyl)-1,2-dihydropyridin-2-one] gave an IC50 of under 0.1 µM. The compound further came in with an IC50 at Human KLKB1 (Table B) of 1 to 10 µM. In addition, in data set [1] (Table B), the IC50 is 10 to 100 µM. In data set [3] (iv, 1 mg/kg), this compound showed an AUC of 50 ng·h/mL, a C0 of 200 ng/mL, a Vd of 5 L/kg and a clearance of 167 mL/min/kg. In addition, the half-life in data set [3] (iv, 1 mg/kg) is 18 min. Moreover, in data set [3] (po, 5 mg/kg), the AUC amounted to 20 ng·h/mL, the bioavailability is 8% and the half-life was over 18 min.
In the case of `CCCCCCOC(=O)N=C(N)c1ccc(NCc2nc3cc(C(=O)N(CCC(=O)OCC)c4ccccn4)ccc3n2C)cc1` [dabigatran etexilate], the “reduction in tumor volume” value with malignant breast tumors (at 4 weeks) is reported as 50%. Also, in the data set with malignant breast tumors, the “reduced tumor cells in the blood and liver micrometastases” value is 50-60%.

Values taken from patent publication US9687479B2, “Multisubstituted aromatic compounds as serine protease inhibitors” (VERSEON CORPORATION, priority 2013, dated 2017).
